{
  "source": "ChEMBL document CHEMBL1132873",
  "about": "“Synthesis and structural analysis of the active enantiomer of famoxadone, a potent inhibitor of cytochrome bc1” (Bioorg Med Chem Lett, 2000)",
  "organism": "Rattus norvegicus",
  "assay": "Compound was tested for inhibition of mitochondrial electron transport",
  "type": "functional",
  "data": [
    {"smiles": "C[C@@]1(c2ccc(Oc3ccccc3)cc2)OC(=O)N(Nc2ccccc2)C1=O", "note": "[FAMOXADONE]", "values": [
      {"measurement": "IC50", "value": 11, "unit": "nM"}
    ]},
    {"smiles": "CN(c1ccccc1)N1C(=O)O[C@@](C)(c2ccc(Oc3ccccc3)cc2)C1=O", "values": [
      {"measurement": "IC50", "value": 35, "unit": "nM"}
    ]}
  ]
}
